Measured values reported in patent EP3057950B1, “PHENYL LINKED QUINOLINYL MODULATORS OF ROR-GAMMA-T” (Janssen Pharmaceutica NV, priority 2013, dated 2015).
pIC50, pKd: −log10 of the molar value. “And” between values parts separate entries of the source, which are not always exact repeats. Equal values may be shown once. Where a name gives a salt, the structure may show the parent alone.

Experiments:
[1] = target: T1, wild type human RORγt ligand binding domain (RORγt LBD) (Homo sapiens, UniProt P51449); experiment: RORγt ThermoFluor® Assay (thermal shift, binding affinity); settings: pH 7.0, estimated from concentration response curves
T1 construct: His-tag (N); TurboTEV protease cleavage site (ENLYFQG) (N); made in house; host or cells: E. coli (pHIS1, modified pET expression vector)
T1 sequence (P51449 269-508 limits assumed): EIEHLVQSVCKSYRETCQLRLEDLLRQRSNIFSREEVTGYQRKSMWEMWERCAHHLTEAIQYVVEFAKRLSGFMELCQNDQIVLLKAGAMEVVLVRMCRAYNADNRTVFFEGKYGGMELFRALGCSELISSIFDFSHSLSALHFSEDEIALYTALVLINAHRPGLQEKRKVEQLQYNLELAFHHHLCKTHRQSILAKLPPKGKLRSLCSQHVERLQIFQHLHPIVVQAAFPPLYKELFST
Method: This approach is applicable to a wide variety of systems, and rigorous in theoretical interpretation through quantitation of equilibrium binding constants (KD).
The shift in the melting point described as a ΔTm is proportional to the concentration and affinity of the ligand.
Protein and compound solutions are dispensed into black 384-well polypropylene PCR microplates (Abgene) and overlayed with silicone oil (1 µL, Fluka, type DC 200) to prevent evaporation.
Bar-coded assay plates are robotically loaded onto a thermostatically controlled PCR-type thermal block and then heated at a typical ramp-rate of 1 °C/min for all experiments. Fluorescence was measured by continuous illumination with UV light (Hamamatsu LC6) supplied via fiber optic and filtered through a band-pass filter (380-400 nm; >6 OD cutoff). Fluorescence emission of the entire 384-well plate was detected by measuring light intensity using a CCD camera (Sensys, Roper Scientific) filtered to detect 500 ± 25 nm, resulting in simultaneous and independent readings of all 384 wells. Images were collected at each temperature, and the sum of the pixel intensity in a given area of the assay plate was recorded versus temperature. Reference wells contained RORγt without compounds, and the assay conditions were as follows: • 0.065 mg/mL RORγt • 60 µM 1,8-ANS • 100 mM Hepes, pH 7.0 • 10 mM NaCl • 2.5 mM GSH • 0.002% Tween-20
Project compounds were arranged in a pre-dosed mother plate (Greiner Bio-one) wherein compounds are serially diluted in 100% DMSO by 1:2 from a high concentration of 10 mM over 12 columns within a series (column 12 is a reference well containing DMSO, no compound). The compounds were robotically dispensed directly into assay plates (1x = 46 nL) using a Hummingbird capillary liquid handling instrument (Digilab). Following compound dispense, protein and dye in buffer was added to achieve the final assay volume of 3 µL, followed by 1 µL of silicone oil.

[2] = target: T2, wild type human RORγt LBD (Homo sapiens, UniProt P51449); experiment: RORγt Reporter Assay (GAL4-RORγt LBD luciferase in HEK293T cells); format: cell-based; settings: HEK293T cells; for pIC50: compounds for 24 hours, read-out: RORγt reporter Assay, IC50; for inhibition at 6 µM: HEK-293T, read-out: RORγt reporter Assay, % inhibition @ 6 µM, @ 6 µM
T2 construct: expressed in transfected cells; host or cells: HEK293T
T2 sequence (P51449 269-508 limits assumed): T1 sequence (P51449 269-508 limits assumed)
Description: A reporter assay was used to test functional activity of RORγt modulatory compounds on transcriptional activation driven by the RORγt LBD. Cells used in the assay were co-transfected with two constructs. The first construct, pBIND-RORγt LBD, contained the wild type human RORγt LBD fused to the DNA binding domain of the GAL4 protein. The second construct, pGL4.31 (Promega Cat no. C935A), contained multiple GAL4 responsive DNA elements upstream of firefly luciferase. […] The mutant construct was called pBIND-RORγt-AF2.
The pBIND vector contains the GAL4 DNA Binding Domain (GAL4 DBD) and the renilla luciferase gene under control of the SV40 promoter. Renilla luciferase expression serves as a control for transfection efficiency and cell viability.
The reporter assay was performed by transiently transfecting HEK293T cells with 5 µg of pBIND-RORγt LBD or pBIND-RORγt LBD-AF2 and 5 µg pGL4.31 (Promega Cat no. C935A) using Fugene 6 (Invitrogen Cat no. E2691) at a 1:6 ratio of DNA: Fugene 6 in a T-75 flask in which cells were at least 80% confluent. Twenty four hours after bulk transfection, cells were plated into 96-well plates at 50,000 cells/well in phenol-red free DMEM containing 5% Lipid Reduced FCS and Pen/Strep. Six hours after plating, cells were treated with compounds for 24 hours. Media was removed and cells were lysed with 50 µL 1x Glo Lysis Buffer (Promega). Dual Glo Luciferase Reagent (50 µL/well) was then added and firefly luciferase luminescence was read on an Envision after a ten minute incubation. Finally, Stop and Glo reagent (50 µL/well) was added and renilla luciferase luminescence was read on an Envision instrument after a ten minute incubation. To calculate the effect of compounds on RORγt activity, the ratio of firefly to renilla luciferase was determined and plotted against compound concentration. Agonist compounds increase RORγt-driven luciferase expression, and antagonist or inverse agonist compounds decrease luciferase expression.

Structure (SMILES)	pKd [1]	pIC50 [2]	inhibition at 6 µM [2]
Cn1cncc1C(O)(c1ccc(Cl)cc1)c1ccc2nc(Cl)c(-c3ccccn3)c(Cl)c2c1 (stereo not drawn) [Example 5, (4-Chlorophenyl)(2,4-dichloro-3-(pyridin-2-yl)quinolin-6-yl)(1-methyl-1H-imidazol-5-yl)methanol•TFA]	6.21	5.77	87%
Cn1cncc1C(O)(c1ccc(Cl)cc1)c1ccc2nc(Cl)c(-c3cccnc3)c(Cl)c2c1 (stereo not drawn) [Example 6, (4-Chlorophenyl)(2,4-dichloro-3-(pyridin-3-yl)quinolin-6-yl)(0-methyl-1H-imidazol-5-yl)methanol•TFA]	6.03	5.72	92%
COc1nc2ccc(C(O)(c3ccc(C(F)(F)F)nc3)c3cncn3C)cc2c(Cl)c1-c1cnn(C)c1 (stereo not drawn) [Example 8, [4-Chloro-2-methoxy-3-(1-methyl-1H-pyrazol-4-yl)quinolin-6-yl](1-methyl-1H-imidazol-5-yl)[6-(trifluoromethyl)pyridin-3-yl]methanol•TFA]	6.57	6.05	87%
COc1nc2ccc(C(O)(c3ccc(C(F)(F)F)nc3)c3cncn3C)cc2c(Cl)c1-c1cccc(S(C)(=O)=O)c1 (stereo not drawn) [Example 11, {4-Chloro-2-methoxy-3-[3-(methylsuffonyl)phenyl]quinolin-6-yl)(1-methyl-1H-imidazol-5-yl)[6-(trifluoromethyl)pyridin-3-yl]methanol•TFA]	6.19	< 5.22	32%
COc1nc2ccc(C(O)(c3ccc(C(F)(F)F)nc3)c3cncn3C)cc2c(Cl)c1-c1cccc(NS(C)(=O)=O)c1 (stereo not drawn) [Example 12]	6.19	~5.70	90%
COc1nc2ccc(C(O)(c3ccc(C(F)(F)F)nc3)c3cncn3C)cc2c(Cl)c1-c1cncc(S(C)(=O)=O)c1 (stereo not drawn) [Example 13, {4-Chloro-2-methoxy-3-[5-(methylsuflonyl)pyridin-3-yl]quinolin-6-yl)(1-methyl-1H-imidazol-5-yl)[6-(trifluoromethyl)pyridin-3-yl]methanol•TFA]	5.70	< 5.22	-52%
COc1nc2ccc(C(O)(c3ccc(C(F)(F)F)nc3)c3cncn3C)cc2c(Cl)c1-c1ccc(Cl)s1 (stereo not drawn) [Example 14a, [4-Chloro-3-(5-chlorothiophen-2-yl)-2-methoxyquinofin-6-yl](1-methyl-1H-imidazol-5-yl)[6-(trifluoromethyl)pyridin-3-yl]methanol•TFA]	8.17	5.96	55%
COc1ncc(-c2c(OC)nc3ccc(C(O)(c4ccc(C(F)(F)F)nc4)c4cncn4C)cc3c2Cl)cn1 (stereo not drawn) [Example 15, [4-Chloro-2-methoxy-3-(2-methoxypyrimidin-5-yl)quinolin-6-yl](1-methyl-1H-imidazol-5-yl)[6-(trifluoromethyl)pyridin-3-yl]methanol•TFA]	7.68	< 5.22	-29%
COc1nc2ccc(C(O)(c3ccc(C(F)(F)F)nc3)c3cncn3C)cc2c(Cl)c1-c1ccc(NS(C)(=O)=O)cc1 (stereo not drawn) [Example 17, N-[4-(4-Chloro-6-{hydroxy(1-methyl-1H-imidazol-5-yl)[6-(trifluoromethyl)pyridin-3-yl]methyl}-2-methoxyquinolin-3-yl)phenyl]methamesulfonamide•TFA]	7.59	6.28	87%
Cn1cncc1C(O)(c1ccc(C#N)cc1)c1ccc2nc(C(F)(F)F)c(-c3ccccc3)c(C#N)c2c1 (stereo not drawn) [Example 28, 6-((4-Cyanophenyl)(hydroxy)(1-methyl-1H-imidazol-5-yl)methyl)-3-phenyl-2-(trifluoromethyl)quinoline-4-carbonitrile•TFA]	7.34	7.62 and ~7.40	96%
CC(=O)N1CCC(C(O)(c2cccnc2)c2ccc3nc(C(F)(F)F)c(-c4ccccc4)c(Cl)c3c2)CC1 (stereo not drawn) [Example 29, 1-(4-((4-Chloro-3-phenyl-2-(trifluoromethyl)quinolin-6-yl)(hydroxy)(pyridin-3-yl)methyl)piperidin-1-yl)ethanone•TFA]	7.59	7.07	97%
COc1c(-c2ccccc2)c(C(F)(F)F)nc2ccc(C(O)(c3ccc(Cl)cc3)c3cncn3C)cc12 (stereo not drawn) [Example 33a, (4-Chlorophenyl)(4-methoxy-3-phenyl-2-(trifluoromethyl)quinolin-6-yl)(1-methyl-1H-imidazol-5-yl)methanol•TFA]	6.80	6.19	98%
COc1nc2ccc(C(O)(c3sc(C)nc3C)c3cnnn3C)cc2c(Cl)c1-c1ccccc1 (stereo not drawn) [Example 35, (4-Chloro-2-methoxy-3-phenylquinolin-6-yl)(2,4-dimethylthiazol-5-yl)(1-methyl-1H-1,2,3-triazol-5-yl)methnol•TFA]	7.74	6.80	101%
COc1c(-c2ccccc2)c(Cl)nc2ccc(C(O)(c3sc(C)nc3C)c3cnnn3C)cc12 (stereo not drawn) [Example 36]	9.05	7.96 and ~7.40	97%
COc1nc2ccc(C(O)(c3sc(C)nc3C)c3cncn3C)cc2c(Cl)c1-c1ccccc1 (stereo not drawn) [Example 37, (4-Chloro-2-methoxy-3-phenylquinolin-6-yl)(2,4-dimethylthiazol-5-yl)(1-methyl-1H-imidazol-5-yl)methanol•TFA]	8.14	6.59	90%
COc1c(-c2ccccc2)c(Cl)nc2ccc(C(O)(c3sc(C)nc3C)c3cncn3C)cc12 (stereo not drawn) [Example 38, (2-Chloro-4-methoxy-3-phenylquinolin-6-yl)(2,4-dimethylthiazol-5-yl)(1-methyl-1H-imidazol-5-yl)methanol•TFA]	9.59	7.52	93%
Cc1ncc(C(O)(c2ccc3nc(Cl)c(-c4ccccc4)c(Cl)c3c2)c2cnnn2C)n1C (stereo not drawn) [Example 39, (2,4-Dichloro-3-phenylquinolin-6-yl)(1,2-dhnethyl-1H-imidazol-5-yl)(1-methyl-1H-1,2,3-triazol-5-yl)methanol]	8.28	7.47	103%
COc1c(-c2ccccc2)c(Cl)nc2ccc(C(O)(c3cnnn3C)c3cnc(C)n3C)cc12 (stereo not drawn) [Example 40a, (2-Chloro-4-metboxy-3-phenylquinolin-6-yl)(1,2-dimethyl-1H-imidazol-5-yl)(1-methyl-1H-1,2,3-triazol-5-yl)methanol•TFA]	8.82	7.64	104%
COc1nc2ccc(C(O)(c3cnnn3C)c3cnc(C)n3C)cc2c(Cl)c1-c1ccccc1 (stereo not drawn) [Example 41a, (4-Chloro-2-methoxy-3-phenylquinolin-6-yl)(1,2-dimethyl-1H-imidazol-5-yl)(1-methyl-1H-1,2,3-triazol-5-yl)methanol•TFA]	7.05	6.49	98%
